Assay results taken from PubChem BioAssay AID248 (DTP/NCI, 2004).
Where “and” joins values, the source holds several entries; their conditions need not be identical. Equal entries are not always repeated. Toxic doses and inconclusive results are not listed. Rule as the data show it: active = T/C of 150% or more; inactive = T/C below 125%.

Tested on: L1210 leukemia ip in BDF1 mice, survival T/C
Assay: NCI In Vivo Anticancer Drug Screen. Data for tumor model L1210 Leukemia (intraperitoneal) in B6D2F1 (BDF1) mice
Conditions: endpoint: mean survival time, higher = longer survival
Summary of the method: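 Mice bearing the transplanted tumor received compound or vehicle. Survival of the treated group was divided by that of the vehicle-treated control group to give the ratio.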

[1] = dose: 100.0 mg/kg/injection, schedule: Q01DX001 (ip), vehicle: saline
[2] = dose: 100.0 mg/kg/injection, schedule: Q04DX003 (ip), vehicle: saline
[3] = dose: 200.0 mg/kg/injection, schedule: Q04DX003 (ip), vehicle: saline
[4] = dose: 400.0 mg/kg/injection, schedule: Q04DX003 (ip), vehicle: saline
[5] = dose: 100.0 mg/kg/injection, schedule: Q04DX003 (ip), vehicle: Klucel (hydroxypropylcellulose) (HPC)
[6] = dose: 200.0 mg/kg/injection, schedule: Q04DX003 (ip), vehicle: Klucel (hydroxypropylcellulose) (HPC)
[7] = dose: 400.0 mg/kg/injection, schedule: Q04DX003 (ip), vehicle: Klucel (hydroxypropylcellulose) (HPC)
[8] = dose: 12.5 mg/kg/injection, schedule: Q01DX009 (ip), vehicle: saline
[9] = dose: 25.0 mg/kg/injection, schedule: Q01DX009 (ip), vehicle: saline
[10] = dose: 100.0 mg/kg/injection, schedule: Q04DX002 (ip), vehicle: Klucel (hydroxypropylcellulose) (HPC)
[11] = dose: 200.0 mg/kg/injection, schedule: Q04DX002 (ip), vehicle: Klucel (hydroxypropylcellulose) (HPC)
[12] = dose: 400.0 mg/kg/injection, schedule: Q04DX002 (ip), vehicle: Klucel (hydroxypropylcellulose) (HPC)
[13] = dose: 100.0 mg/kg/injection, schedule: Q01DX009 (ip), vehicle: Klucel (hydroxypropylcellulose) (HPC)
[14] = dose: 200.0 mg/kg/injection, schedule: Q01DX009 (ip), vehicle: Klucel (hydroxypropylcellulose) (HPC)
[15] = dose: 400.0 mg/kg/injection, schedule: Q01DX009 (ip), vehicle: Klucel (hydroxypropylcellulose) (HPC)
[16] = dose: 50.0 mg/kg/injection, schedule: Q04DX003 (ip), vehicle: Klucel (hydroxypropylcellulose) (HPC)
[17] = dose: 150.0 mg/kg/injection, schedule: Q01DX001 (ip), vehicle: saline
[18] = dose: 100.0 mg/kg/injection, schedule: Q04DX002 (ip), vehicle: saline with Tween-80
[19] = dose: 200.0 mg/kg/injection, schedule: Q04DX002 (ip), vehicle: saline with Tween-80
[20] = dose: 400.0 mg/kg/injection, schedule: Q04DX002 (ip), vehicle: saline with Tween-80

Measured: T/C

NNc1cc(S(=O)(=O)O)cc(C(=O)O)c1O
inactive: [1] 107 % of control | dose: 100.0 mg/kg/injection, schedule: Q01DX009 (ip), vehicle: saline 100 % of control and 103 % of control | dose: 100.0 mg/kg/injection, schedule: Q04DX002 (ip), vehicle: saline 97 % of control and 90 % of control | dose: 200.0 mg/kg/injection, schedule: Q01DX001 (ip), vehicle: saline 102 % of control | dose: 200.0 mg/kg/injection, schedule: Q01DX009 (ip), vehicle: saline 110 % of control and 89 % of control | dose: 200.0 mg/kg/injection, schedule: Q04DX002 (ip), vehicle: saline 100 % of control and 90 % of control | dose: 400.0 mg/kg/injection, schedule: Q01DX001 (ip), vehicle: saline 102 % of control | dose: 400.0 mg/kg/injection, schedule: Q01DX009 (ip), vehicle: saline 87 % of control | dose: 400.0 mg/kg/injection, schedule: Q04DX002 (ip), vehicle: saline 108 % of control and 90 % of control

CCOC(=O)C(NC(C)=O)(C(=O)OCC)C(C)C(O)c1ccc(OC)c(OC)c1O (centres undefined)
inactive: [2] 92 % of control | [3] 113 % of control | [4] 103 % of control

CC1CC2C3CC(F)C4=CC(=O)C=CC4(C)C3(F)C(O)CC2(C)C1(O)C(=O)COC(=O)C(C)(C)C (centres undefined)
inactive: dose: 100.0 mg/kg/injection, schedule: Q01DX001 (ip), vehicle: steriod suspending solution 106 % of control | dose: 200.0 mg/kg/injection, schedule: Q01DX001 (ip), vehicle: steriod suspending solution 95 % of control | dose: 400.0 mg/kg/injection, schedule: Q01DX001 (ip), vehicle: steriod suspending solution 95 % of control

C1CCC(P(C2CCCCC2)C2CCCCC2)CC1
inactive: [5] 93 % of control | [6] 93 % of control | [7] 89 % of control

COc1ccc2c(c1)C1C=[S+]c3ccccc3C1N2 (centres undefined)
inactive: [8] 101 % of control | dose: 12.5 mg/kg/injection, schedule: Q04DX003 (ip), vehicle: saline 95 % of control | [9] 103 % of control | dose: 25.0 mg/kg/injection, schedule: Q04DX003 (ip), vehicle: saline 92 % of control | dose: 50.0 mg/kg/injection, schedule: Q04DX003 (ip), vehicle: saline 98 % of control

CSc1ccc(NC(=O)c2ccc([N+](=O)[O-])cc2)cc1
inactive: [10] 95 % of control | [11] 95 % of control | [12] 92 % of control

CCCCn1c(=O)cc[nH]c1=O
inactive: [5] 99 % of control | [6] 91 % of control | [7] 93 % of control

O=C(N/C=C/NC(=O)OC(=O)C(Cl)(Cl)Cl)OC(=O)C(Cl)(Cl)Cl
inactive: [2] 92 % of control | [3] 88 % of control | [4] 93 % of control

CC(C)=NNC(N)=O
inactive: [8] 97 % of control | [9] 100 % of control | dose: 25.0 mg/kg/injection, schedule: Q04DX002 (ip), vehicle: saline 98 % of control | dose: 50.0 mg/kg/injection, schedule: Q01DX009 (ip), vehicle: saline 94 % of control | dose: 50.0 mg/kg/injection, schedule: Q04DX002 (ip), vehicle: saline 103 % of control

N=C(N)c1ccc(-c2cc3ccc(C(=N)N)cc3s2)cc1
inactive: dose: 12.5 mg/kg/injection, schedule: Q04DX003 (ip), vehicle: saline with Tween-80 96 % of control | dose: 25.0 mg/kg/injection, schedule: Q04DX003 (ip), vehicle: saline with Tween-80 107 % of control | dose: 50.0 mg/kg/injection, schedule: Q04DX003 (ip), vehicle: saline with Tween-80 96 % of control

O=C1OC(Cl)(C(Cl)(Cl)Cl)C(=O)OC1(Cl)C(Cl)(Cl)Cl (centres undefined)
inactive: dose: 100.0 mg/kg/injection, schedule: Q04DX003 (ip), vehicle: acetone 98 % of control | dose: 200.0 mg/kg/injection, schedule: Q04DX003 (ip), vehicle: acetone 98 % of control | dose: 400.0 mg/kg/injection, schedule: Q04DX003 (ip), vehicle: acetone 96 % of control

O=C(NCCCl)NC1c2ccccc2CCc2ccccc21
inactive: [13] 94 % of control | [5] 106 % of control | [14] 88 % of control | [6] 105 % of control | [15] 98 % of control | [7] 90 % of control

Cc1c(C)c2c(C(N)=O)c3ccccc3nc2c2ccccc12
inactive: [16] 100 % of control | [5] 100 % of control | [6] 92 % of control | [7] 97 % of control

CC(CNC1CCCCC1)OC(=O)c1ccc([N+](=O)[O-])cc1 (centres undefined)
inactive: dose: 75.0 mg/kg/injection, schedule: Q01DX001 (ip), vehicle: acetone 103 % of control | dose: 150.0 mg/kg/injection, schedule: Q01DX001 (ip), vehicle: acetone 93 % of control | dose: 300.0 mg/kg/injection, schedule: Q01DX001 (ip), vehicle: acetone 97 % of control

COC1OC(CCl)C(OC(=O)c2ccccc2)C(OC(=O)c2ccccc2)C1OC(=O)c1ccccc1 (centres undefined)
inactive: [10] 114 % of control | [11] 101 % of control | [12] 104 % of control

CCCCCCCCc1nc2c(c(=O)n(C)c(=O)n2C)n1C
inactive: dose: 45.0 mg/kg/injection, schedule: Q01DX001 (ip), vehicle: saline 95 % of control and 101 % of control | dose: 67.0 mg/kg/injection, schedule: Q01DX001 (ip), vehicle: saline 101 % of control and 104 % of control | [1] 97 % of control and 104 % of control | [17] 95 % of control and 101 % of control

COC(=O)c1ccccc1NC(=O)NCCBr
inactive: [13] 95 % of control | [5] 103 % of control | [14] 93 % of control | [6] 97 % of control | [15] 93 % of control | [7] 110 % of control

Cn1ccc2c([N+](=O)[O-])cccc2c1=O
inactive: dose: 25.0 mg/kg/injection, schedule: Q04DX003 (ip), vehicle: Klucel (hydroxypropylcellulose) (HPC) 92 % of control | [16] 98 % of control

Cc1ccc(S(=O)(=O)N2CCC(=O)c3ccc(Cl)cc32)cc1
inactive: [5] 93 % of control | [6] 94 % of control | [7] 96 % of control

N#CCCN(CCC#N)C(=O)Nc1cccc(Cl)c1
inactive: dose: 100.0 mg/kg/injection, schedule: Q04DX003 (ip), vehicle: saline with Tween-80 98 % of control | dose: 200.0 mg/kg/injection, schedule: Q04DX003 (ip), vehicle: saline with Tween-80 88 % of control | dose: 400.0 mg/kg/injection, schedule: Q04DX003 (ip), vehicle: saline with Tween-80 91 % of control

CC1CP(=O)(Cc2ccccc2)C(c2ccccc2)=C1O (centres undefined)
inactive: [5] 90 % of control | [6] 93 % of control | [7] 96 % of control

Nc1ncnc2c1ncn2C1OC(COP(=O)(O)OCC(N)Cc2ccccc2)C(O)C1O (centres undefined)
inactive: dose: 100.0 mg/kg/injection, schedule: Q01DX005 (ip), vehicle: saline 87 % of control | dose: 200.0 mg/kg/injection, schedule: Q01DX005 (ip), vehicle: saline 107 % of control

Oc1ccc(Br)cc1C=Nc1cccc(C(F)(F)F)c1
inactive: [18] 102 % of control | [19] 100 % of control | [20] 96 % of control

Cc1ccc2c(c1)C(c1ccccc1)(c1ccccc1)OC2
inactive: dose: 50.0 mg/kg/injection, schedule: Q01DX001 (ip), vehicle: carboxymethylcellulose (CMC) 101 % of control | dose: 100.0 mg/kg/injection, schedule: Q01DX001 (ip), vehicle: carboxymethylcellulose (CMC) 95 % of control | dose: 200.0 mg/kg/injection, schedule: Q01DX001 (ip), vehicle: carboxymethylcellulose (CMC) 89 % of control | dose: 400.0 mg/kg/injection, schedule: Q01DX001 (ip), vehicle: carboxymethylcellulose (CMC) 101 % of control

CCCCCCCCCCCC1CCCC2CCCCC12 (centres undefined)
inactive: [18] 91 % of control | [19] 91 % of control | [20] 100 % of control

CCCCC(=O)NC1CCCCC1
inactive: dose: 75.0 mg/kg/injection, schedule: Q01DX001 (ip), vehicle: saline 101 % of control | [17] 95 % of control
